According to patent US11446304B2, “CDC-7-inhibitor compounds and use thereof for the treatment of neurological conditions” (CONSEJO SUPERIOR DE INVESTIGACIONES CIENTIFICAS (CSIC), priority 2017, dated 2022):

Legend:
[1] = PAMPA blood-brain barrier permeation (porcine brain lipid); format: in vitro ADME; conditions: for Papp at 2.5 h: PAMPA-BHE, PBS pH 7.4/EtOH 70:30, 2 h 30 min at 25° C., mean ± SD, read-out: Pe; for PAMPA prediction of central nervous system (CNS) penetration: from Pe in PAMPA-BHE
Excerpt: An essential requirement for drugs for the treatment of neurodegenerative diseases is the ability to cross the blood-brain barrier (BBB), as otherwise they could not act on the target of interest. Therefore, for compounds that are not permeable or located in the area of uncertainty, it may be necessary to properly convey a pharmaceutical formulation through methods known to an expert in the field, such as encapsulation. This capability can be predicted in vitro using a method known by the acronym PAMPA (Parallel Artificial Membrane Permeability Assay) described by Di et al (Di, L.; Kerns, E. H.; Fan, K.; McConnell, O. J.; Carter, G. T. Eur. J. Med. Chem. 2003, 38 (3), 223-232) and which has subsequently been fine-tuned in our research group. This method allows predicting the effective permeability through artificial membranes by means of a passive diffusion process.
First of all, it is necessary to validate the method, for which 10 commercial compounds are used whose penetration capacity in the central nervous system (CNS) is known and which are to be specified below, obtaining in this case a good linear correlation between the experimental permeability values (Pe) and those described (FIG. 1). This correlation line obtained following the pattern described in the bibliography allows establishing the limits to predict whether or not a compound can cross the blood-brain barrier. Thus, a compound is considered BBB permeable (SNC+) if it has a permeability>4.48×10^−6 cm-s^−1.
For the procedure, between 3-5 mg of caffeine, desipramine, enoxacin, hydrocortisone, ofloxacin, piroxicam and testosterone, 12 mg of promazine and 25 mg of atenolol and verapamil were taken and dissolved in EtOH (1000 μL). 100 μL of these solutions were taken and EtOH (1400 μL) and phosphate buffer (PBS) pH=7.4 (3500 μL) were added in order to achieve a final EtOH concentration of 30% v/v in solution. Finally, the dissolutions were filtered.
On the other hand, a PBS/EtOH solution (70:30) was added to each well of the acceptance plate (180 μL). The donor plate was impregnated with a porcine brain lipid solution (4 μL) dissolved in dodecane (20 mg mL^−1). After 5 min, dissolution of each compound was added to this plate (180 μL).
Of the compounds 1 to 10 evaluated, 1-2 mg were taken and dissolved in EtOH (1500 μL) and phosphate buffer (PBS) pH=7.4 (3500 μL), filtered and added to the donor plate. With these solutions, the wavelengths at which the compounds absorb are determined and the initial absorbance levels at these wavelengths are measured using a UV absorbance reader. Each sample was analyzed from two to five wavelengths, in three wells and in two independent experiments.
The donor plate was then deposited on the acceptor forming a kind of “sandwich” and incubated for 2 hours and 30 minutes at 25° C. In this way, the compounds will pass from the donor plate to the acceptor plate through the porcine brain lipid by passive diffusion. After that time, the donor plate is carefully removed and the concentration and final absorbance of both commercial and synthesized compounds is determined. The results obtained are expressed as the mean of the measurements [standard deviation (SD)] of the different experiments carried out and are shown in table 2.

human recombinant CDC7 = target: T1, human recombinant CDC7 (Homo sapiens, UniProt O00311); assay: CDC7 inhibition measurement (ADP-Glo technology); format: biochemical; conditions: ATP 10 μM, 60 min at room temperature; read-out: CDC7 ADP-Glo ™ CI50
T1 construct: purchased Promega V5089
Protocol: The method used is a non-radioactive enzyme inhibition assay using human recombinant CDC7. It is based on luminometric quantification of inhibition using the ADP-Glo™ Kinase Kit. In this test the luminescent signal correlates positively with the amount of adenosine diphosphate (ADP) and the activity of the kinase. […]
CDC7 enzyme inhibition studies were conducted using the promega kit: ADP-Glo™ Kinase Assay+CDC7/DBF4 Kinase Enzyme System (Catalogue No. V5089). ATP and other reagents were purchased in Sigma-Aldrich (St. Louis, Mo.). The trials were performed in a buffer solution using 96-well plates. The compound to be tested (5 μL, 40 μM dissolved in DMSO 4%) was added to each well followed by the enzyme (5 μL, 25 ng/well), ATP (5 μL, final concentration in well 10 μM) and PDKtidE (5 μL, 4 μg/well). It was then incubated for 60 minutes at room temperature and the reagent ADP-Glo™ (20 μL) was added and incubated again for 40 min at room temperature. After incubation, the kinase detection agent (40 μL) was added and incubated for 30 min at room temperature. Finally, the luminescence (integration time of 0.5-1 sec) was measured using a POLARstar Optima multimode reader polarimeter. Inhibition activities were calculated as a function of maximum activity, measured in the absence of inhibitor.

[2] = target: human recombinant CDC7/DBF4 (Homo sapiens, UniProt O00311); assay: CDC7 inhibition measurement (LanthaScreen Eu kinase binding, FRET); conditions: CDC7/DBF4 0.5 nM, 60 min at room temperature; read-out: CDC7 Lantha ™ CI50
Excerpt: The LanthaScreen Eu kinases inhibition assay uses an Alexa marker Fluor™ that binds to a kinase and is detected by the addition of an Eu-marked antibody. The binding of the marker and the antibody to the kinase results in a high degree of FRET, while the displacement of the marker by an inhibitor results in a loss of FRET. Unlike many other kinase activity tests, this is a simple mix and read test, with no developmental stages. This test method has been developed by Life Technologies and identifies competitive ATP kinase inhibitors, making them suitable for the detection of any compound that binds to the ATP site.
The compounds are evaluated at 1% DMSO (final) in the well. A mixture of human recombinant CDC7/DBF4 (0.5 nM), Eu-antiGST antibody (2 nM) and AlexaFluor marker (1 nM) has been used in a buffer of 50 mM HEPES pH 7.5, 0.01% BRIJ-35, 10 mM MgCl2, 1 mM EGTA in white plates of […], low volume, coded (Greiner cat. #784207), 160 nL (100×100% DMSO compound), 3.84 μL (buffer with CDC7/DBF4), 8.0 μL (antibody), 4.0 μL (marker) are added. Agitate 30 s and incubate at room temperature for 60 min. Then measure the fluorescence in the plate reader and analyze the data (Table 1).

[3] = system: TDP-43 phosphorylation (S409/410); assay: Effect on phosphorylation of TDP-43 (western blot); format: cell-based, human; conditions: SH-SY5Y cells, 24 h incubation with ethacrynic acid, FIG. 3
Protocol: FIG. 3. Sample of the effect of CDC7 inhibitors (compounds 1, 8, 9 and 13) on TDP-43 phosphorylation. Quantification and representation of phosphorylated TDP-43 levels by western blot.
To evaluate the levels of TDP-43 phosphorylated in the presence of CDC7 inhibitors (compounds 1 and 8), the cells after 24 h of incubation with ethacrylic acid were washed with PBS and then cold lysed with lysis buffer (50 mM Tris pH 7.4, 150 mM NaCl, 50 mM NaF, 1% Nonidet P-40 and Protease and phosphatase inhibitors (Roche)). The collected cell extracts were centrifuged for 10 minutes at 4,000 rpm. Protein quantification was performed with the Pierce BCA protein assay kit (Thermo Scientific). 10 μg of protein were loaded into the polyacrylamide gel with SDS and subsequently transferred to a polyvinylidene fluoride (PVDF) membrane (Millipore).

[4] = system: human SH-SY5Y neuroblastoma cells; assay: Neuroprotective effect against ethacrynic acid, cell viability by MTT; format: cell-based; conditions: ethacrynic acid 20 μM for 12 hours, inhibitors at 10 μM, FIG. 2
Protocol: FIG. 2. […] The data represent the mean of four different±SEM experiments (*p<0.05).
The human neuroblastoma cell line SH-SY5Y was cultured at 37° C. with 5% CO2 in DMEN medium (Dulbecco's Modified Eagle Medium) enriched with L-glutamine (2 mM), 1% non-essential amino acids, 1% Penicillin/Estreptomycin and 10% fetal bobin serum. In the semiconfluence state, the cells were treated with CDC7 inhibitors (compounds 1 and 8) at different concentrations for 1.30 hours post-addition of the causative agent of TPD-43 phosphorylation; ethacrynic acid ([…]) (Sigma). […] J Immunol Methods. 1987; 89:271-7) and levels of western blot phosphorylated TDP-43 (FIG. 2).

T1 sequence (O00311 whole entry): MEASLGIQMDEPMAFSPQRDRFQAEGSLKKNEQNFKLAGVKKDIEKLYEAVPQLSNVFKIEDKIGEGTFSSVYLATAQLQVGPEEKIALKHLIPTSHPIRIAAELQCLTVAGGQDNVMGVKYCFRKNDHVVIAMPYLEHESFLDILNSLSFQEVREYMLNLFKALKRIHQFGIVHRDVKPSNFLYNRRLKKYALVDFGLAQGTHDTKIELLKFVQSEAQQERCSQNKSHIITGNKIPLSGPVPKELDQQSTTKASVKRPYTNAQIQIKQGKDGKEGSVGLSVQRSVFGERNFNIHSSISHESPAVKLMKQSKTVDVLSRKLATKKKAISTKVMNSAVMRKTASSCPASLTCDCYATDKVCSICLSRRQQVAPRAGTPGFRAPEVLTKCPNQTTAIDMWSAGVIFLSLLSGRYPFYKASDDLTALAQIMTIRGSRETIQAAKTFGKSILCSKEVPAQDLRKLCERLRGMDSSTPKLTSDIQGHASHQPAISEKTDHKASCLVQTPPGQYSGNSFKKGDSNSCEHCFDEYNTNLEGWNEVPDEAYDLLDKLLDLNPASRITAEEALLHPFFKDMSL
T1 sequence (Q9UBU7 whole entry partner): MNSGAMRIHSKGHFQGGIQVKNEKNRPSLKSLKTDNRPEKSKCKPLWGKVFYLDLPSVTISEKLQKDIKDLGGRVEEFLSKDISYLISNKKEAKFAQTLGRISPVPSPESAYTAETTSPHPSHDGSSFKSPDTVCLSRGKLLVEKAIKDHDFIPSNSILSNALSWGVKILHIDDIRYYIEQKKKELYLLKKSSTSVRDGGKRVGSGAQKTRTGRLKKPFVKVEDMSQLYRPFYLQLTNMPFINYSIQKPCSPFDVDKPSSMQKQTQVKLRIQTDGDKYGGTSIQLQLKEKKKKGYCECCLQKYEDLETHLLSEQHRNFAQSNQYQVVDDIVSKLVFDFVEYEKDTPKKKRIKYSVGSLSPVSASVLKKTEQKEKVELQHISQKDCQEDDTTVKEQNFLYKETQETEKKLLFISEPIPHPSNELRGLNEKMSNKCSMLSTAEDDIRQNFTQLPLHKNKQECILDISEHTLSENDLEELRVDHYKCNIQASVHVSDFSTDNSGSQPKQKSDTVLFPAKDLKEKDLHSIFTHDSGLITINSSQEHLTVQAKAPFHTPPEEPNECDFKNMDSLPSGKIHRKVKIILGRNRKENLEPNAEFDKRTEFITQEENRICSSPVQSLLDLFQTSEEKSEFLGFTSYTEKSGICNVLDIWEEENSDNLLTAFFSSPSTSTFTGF
Sequence of human recombinant CDC7/DBF4 (O00311 whole entry): as the sequence (O00311 whole entry) above
Sequence of human recombinant CDC7/DBF4 (Q9UBU7 whole entry partner): as the sequence (Q9UBU7 whole entry partner) above

| Papp at 2.5 h [1] [×10⁻⁶ cm/s] | IC50 (human recombinant CDC7) [µM] | IC50 [2] [µM] | melting point [°C] | Structure (SMILES) | PAMPA prediction of central nervous system (CNS) penetration [1] | phosphorylated TDP-43 levels [3] | neuroprotective effect (cell viability) [4] |
| --- | --- | --- | --- | --- | --- | --- | --- |
| 6.2 ± 1.1 | 6.74 ± 0.35 | 0.125 | – | c1ccc(CSc2ncnc3[nH]cnc23)cc1 [Compound 1, 6-(benzylthio)-9H-purine] | SNC+ (a compound is considered BBB permeable (SNC+) if it has a permeability>4.48×10^−6 cm-s^−1) | reduce phosphorylation of TDP-43 | neuroprotective effect |
| 2.3 ± 0.2 | 8.38 ± 0.27 | 0.335 | 189 to 191 | N#Cc1cccc(CSc2ncnc3[nH]cnc23)c1 [Compound 3] | SNC+/− | – | – |
| 17.5 ± 0.9 | 9.73 ± 1.03 | 0.245 | – | FC(F)(F)c1ccccc1CSc1ncnc2[nH]cnc12 [Compound 4, 6-((2-(trifluoromethyl)benzyl)thio)-9H-purine] | SNC+ (a compound is considered BBB permeable (SNC+) if it has a permeability>4.48×10^−6 cm-s^−1) | – | – |
| 7.2 ± 0.6 | 8.98 ± 0.21 | 0.194 | 197 to 199 | Clc1cccc(COc2ncnc3[nH]cnc23)c1 [Compound 6, 6-((3-chlorobenzyl)oxy)-9H-purine] | SNC+ (a compound is considered BBB permeable (SNC+) if it has a permeability>4.48×10^−6 cm-s^−1) | – | – |
| 3.9 ± 0.4 | 6.54 ± 0.32 | – | 193 to 195 | O=[N+]([O-])c1cccc(CSc2ncnc3[nH]cnc23)c1 [Compound 10, 6-((3-nitrobenzyl)thio)-9H-purine] | SNC+/− | – | – |
| – | 5.29 ± 0.71 | 0.138 | – | Brc1cccc(CSc2ncnc3[nH]cnc23)c1 [Compound 11, 6-((3-bromobenzyl)thio)-9H-purine] | – | – | – |
| 13.1 ± 0.1 | 6.24 ± 0.99 | 0.275 | 209 to 211 | Brc1ccccc1CSc1ncnc2[nH]cnc12 [Compound 13, 6-((2-bromobenzyl)thio)-9H-purine] | SNC+ (a compound is considered BBB permeable (SNC+) if it has a permeability>4.48×10^−6 cm-s^−1) | – | neuroprotective effect |

The remaining lines, values behind:

| Structure (SMILES) | Papp at 2.5 h [1] [×10⁻⁶ cm/s] | IC50 (human recombinant CDC7) [µM] | IC50 [2] [µM] | melting point [°C] | PAMPA prediction of central nervous system (CNS) penetration [1] | phosphorylated TDP-43 levels [3] | neuroprotective effect (cell viability) [4] |
| --- | --- | --- | --- | --- | --- | --- | --- |
| c1ccc2c(CSc3ncnc4[nH]cnc34)cccc2c1 [Compound 2, 6-((Naphthalene-1-ylmethyl)thio)-9H-purine] | 13.2 ± 2 | 11.2 ± 0.84 | 0.347 | 221 to 222 | SNC+ (a compound is considered BBB permeable (SNC+) if it has a permeability>4.48×10^−6 cm-s^−1) | – | – |
| Clc1ccc(CSc2ncnc3[nH]cnc23)cc1 [Compound 5, 6-((4-chlorobenzyl)thio)-9H-purine] | 12.2 ± 1.2 | 8.46 ± 1.05 | 0.184 | 198 to 200 | SNC+ (a compound is considered BBB permeable (SNC+) if it has a permeability>4.48×10^−6 cm-s^−1) | – | – |
| FC(F)(F)c1cccc(CSc2ncnc3[nH]cnc23)c1 [Compound 7, 6-((3-(trifluoromethyl)benzyl)thio)-9H-purine] | 16.3 ± 0.6 | 6.9 ± 0.83 | – | 180 to 182 | SNC+ (a compound is considered BBB permeable (SNC+) if it has a permeability>4.48×10^−6 cm-s^−1) | – | – |
| Clc1cccc(CSc2ncnc3[nH]cnc23)c1 [Compound 8, 6-((3-Chlorobenzyl)thio)-9H-purine] | 15.1 ± 0.6 | 5.21 ± 0.38 | 0.172 | 167 to 169 | SNC+ (a compound is considered BBB permeable (SNC+) if it has a permeability>4.48×10^−6 cm-s^−1) | reduce phosphorylation of TDP-43 | neuroprotective effect |
| Ic1cccc(CSc2ncnc3[nH]cnc23)c1 [Compound 9, 6-((3-Iodobenzyl)thio)-9H-purine] | 13.8 ± 2.5 | 3.34 ± 0.27 | 0.086 | 185 to 187 | SNC+ (a compound is considered BBB permeable (SNC+) if it has a permeability>4.48×10^−6 cm-s^−1) | – | neuroprotective effect |
| Brc1ccc(CSc2[nH]cnc3ncnc2-3)cc1 [Compound 12, 6-((4-bromobenzyl)thio)-9H-purine] | 11.5 ± 0.7 | 9.14 ± 0.79 | – | – | SNC+ (a compound is considered BBB permeable (SNC+) if it has a permeability>4.48×10^−6 cm-s^−1) | – | – |
